Laboratory results reported in patent US11679111B2, “Fatty acid synthase inhibitors” (priority 2016, dated 2023).
Read-outs that look alike come from different tables or passages of the source.

Experiments:
HepG2 cells = assay: HepG2 cell viability (Resazurin); assay type: cell-based
Method: HepG2 cells were seeded in 96 well plates and after reaching 80% confluency, the cells were treated with different concentrations of HS-106 for 4 hours. At the end of the treatment time, 10 μl of 700 μM Resazurin (prepared with PBS) were added to each well. After 3 hours, the Resorufin fluorescence was measured at Ex/Em: 540/590 nm.

MCF10A cells = assay: Proliferation assay (Hoechst DNA content), non-tumorigenic cell line; assay type: cell-based
Method: (§1) MCF10A (5,000 cells/well), MCF7 (7,500 cells/well), MDA-MB-468 (5,000 cells/well), BT474 (7,500 cells/well), and SKBR3 (5,000 cells/well) were seeded in 96 well plates with 10% FBS 4 g/L glucose DMEM media except for MCF10A which was DMEM/F12 media. After 24 hours, cells were treated with different concentration of HS-106 or C75. Every 24 hours for five days, media from one of the plates was removed and plate was frozen at −80° C. After collecting all the time points, to each well 100 μl ddH2O was add and the plates were frozen again. Then 100 μI of Hoechst 33258 solution made in TNE buffer (1 μl from Hoechst stock (1 mg/ml in 1:4 DMSO:H20) in 1 ml of TNE (which contains 10 mM Tris, 2M NaCl and 1 mM Na2EDTA) and fluorescence was measured at Ex/Em: 355/460.

[1] = test system: MMTV-Neu model of HER2+ breast cancer; assay: Efficacy in MMTV-Neu model of HER2+ breast cancer; assay type: in vivo, mice; settings: 30 pmol/kg IP biweekly, vehicle 29 days
[2] = test system: FASN activity in HepG2 cells; assay: [3H] glucose and acetate incorporation into lipids in HepG2 cells; assay type: cell-based; settings: for EC50 / IC50: Homo sapiens
Method: To specifically identify inhibitors of FASN targeting its nucleotide binding pockets Cibacron blue Sepharose was utilized. This medium has been used previously to purify NAD and NADP binding proteins from crude tissues extracts (Miyaguchi et al., 2011; Muratsubaki et al., 1994). FASN enriched extract from lactating pig mammary gland was bound to the resin and labeled with cysteine reactive fluorescein. […] Next, the molecules were tested for their ability to inhibit FASN activity in a HepG2 cell based assay that measured the incorporation of ^3H glucose into lipids (FIG. 1B and FIG. 9).
Incorporation of radiolabeled glucose or acetate in total lipids was measured according to published methods (Haystead and Hardie, 1986). HepG2 cells (80% confluent in 12 wells plates) were starved overnight in MEM Alpha, the medium was then changed with DMEM medium containing 0.1 g/L glucose 10% FBS and 5 μM insulin and 1 μCi 3-[^3H] D-glucose or 1 μCi [^3H]-acetate in addition to different concentrations of each compound. After incubation for 1 hour at 37° C., 5% CO2, the cells were washed with ice cold PBS and detached by treating with 100 μl trypsin for 10 min then 1 ml of ice cold PBS was added. The cells suspension was then sonicated for 3 times in 30 seconds intervals and kept on ice. From each well 1 ml of cell lysate was added to a 4 ml scintillation vial and 2 ml of MicroScint-E was added. The vials were mixed thoroughly then centrifuged for 30 min at 3000 rpm and the ^3H radioactivity was measured by liquid scintillation counting.

HIV-1 [3] = settings: for HIV-1 p24 production reduced by: PBMC
Method: Primary cell experiments were approved by the Ohio State University Institutional Review Board, protocol #2014H0001. Peripheral blood mononuclear cells (PBMC) were isolated from healthy donor by Ficoll-Paque centrifugation, stimulated in complete RPMI 1640 medium (Gibco, Carlsbad, Calif.) containing 10% FBS, 100 μg/mL penicillin/streptomycin and supplemented with 5 μg/mL phytohemaglutinin (PHA; Gibco) for 48 h, and maintained thereafter in complete RPMI medium supplemented with 20U/mL of interleukin-2 (Gibco). PBMCs were seeded in 24-well plate (2×10^5 cells/well) and triplicate wells were treated with 10 or 50 μM C75, HS-106, or with DMSO and subsequently infected with 10 ng/mL p24 equivalents of HIV-1LucR-T2A virus, which is derived from NL4-3 (Edmonds et al., 2010). Cells were washed 24 h post infection. Supernatants were collected 4 days post infection and p24 content analyzed by quantitative ELISA (Zeptometrix).

HIV-1 [4] = assay type: cell-based
Method: (A) TZM-bl cells were transfected with pNL4-3 provirus plasmid for 48 h in the presence or absence of 10 μM Fasnall or C75 or DMSO (0.01%). Intracellular expression of HIV-1 proteins was monitored by HIVIG-western blot, and β-actin was used as loading control. (B) Supernatant associated virion production was monitored using a p24 ELISA. (C) 48 hours post-transfection, cell culture supernatants were removed and incubated with fresh TZM-bl (indicator) cells for an additional 48 hrs. Values expressed as the mean±standard deviation, and are representative of three independent experiments. p-values were generated with student's t-test. Molecular weight markers (kD) indicated in right margin.
To test further the hypothesis that HIV-1 replication requires FASN activity during the late stages of viral replication, TZM-bl or SupT1 (data not shown) cells were transfected with a HIV-1 provirus (pNL43) in the presence or absence of Fasnall or C75. […] Thus, FASN inhibition reduces nascent HIV-1 virion production without reducing HIV-1 protein synthesis.

[5] = test system: MCF7, MDA-MB-468, BT474 and SKBR3 cells; assay: Proliferation assay (Hoechst DNA content), aggressive breast cancer cell lines; assay type: cell-based; settings: MCF7, MDA-MB-468, BT474, SKBR3
Method: as §1

Method for PBMC: Unfixed PBMCs were exposed to drug for 48 hours, and PBMC viability was assessed by flow cytometry using propidium iodine (PI) exclusion (BD Pharmingen) and Annexin V staining (BD Pharmingen). Viable cells are defined as cells that both exclude PI and are Annexin V negative.

Cc1sc2ncnc(NC3CCN(Cc4ccccc4)C3)c2c1C (racemic) [HS-106, N-(1-benzylpyrrolidin-3-yI)-5,6-dimethylthieno[2,3-d]pyrimidin-4-amine]
HepG2 cell viability (HepG2 cells): without affecting the cell viability | effect on PBMC viability (PBMC): negligible effects on cell viability | inhibition of proliferation (MCF10A cells): lower activity | median survival [1]: 63 days | inhibition of tritiated acetate incorporation into lipids ([2]; FIG. 2D, cell line not stated): inhibit the incorporation of tritiated acetate into lipids | rank among the 13 molecules tested, 3H glucose incorporation into lipids ([2]; HepG2 cells): most potent inhibitor | EC50 ([2]; HepG2, read-out: EC50, blockade of acetate incorporation into total lipids): 0.147 µM | EC50 ([2]; HepG2, read-out: EC50, blockade of glucose incorporation into total lipids): 0.213 µM | IC50 ([2]; HepG2, read-out: IC50, incorporation of tritiated acetate into lipids): 0.147 µM | IC50 ([2]; HepG2, read-out: IC50, incorporation of tritiated glucose into lipids): 0.213 µM | HIV-1 p24 production reduced by (HIV-1 [3]; 10 μM): 87% | HIV-1 p24 production reduced by (HIV-1 [3]; 50 μM): 96% | reduction of HIV-1 p24 production (HIV-1 [3]; primary PBMCs, 10 μM): approximately 10 fold | HIV-1 p24 particle deposition into culture medium (HIV-1 [4]; TZM-bl, 10 μM, 48 h): significantly reduce HIV-1 p24 particle deposition into culture medium | intracellular Gag levels (HIV-1 [4]; TZM-bl, 10 μM, 48 h): did not reduce intracellular Gag levels | number of infectious HIV-1 particles (HIV-1 [4]; supernatants on fresh TZM-bl indicator cells): similarly reduced the number of infectious HIV-1 particles | inhibition of proliferation [5]: inhibited the proliferation of aggressive cell lines with similar potency to C75
